# From patent US9668962B2, “Compositions and related methods for oral wellness” (NOWSystem, Inc., priority 2012, dated 2017)
# Legend:
# P. gingivalis [1] = assay: zone of inhibition on blood agar, drop technique and line method (Example 3); assay type: cell-based, Porphyromonas gingivalis; details: control spot, dilution not given; after 5 days of incubation
# Method: (§1) Experimental Design: Blood agar (for the 3 anaerobic bacteria, 3 facultative bacteria and 1 aerobic yeast; Fisher Scientific) plates were individually swabbed with fresh 24 h broth cultures of C. rectus, Aggregatibacter actinomycetemcomitans (A.a), C. albicans, P. gingivalis, P. intermedia, F. nucleatum and S. mutans to provide a confluent lawn of microbial growth. Five minutes after swabbing the plates (to allow the inoculum to absorb into the agar), the test and control specimens (see below) were aseptically pipetted (5 ul) onto designated places on the plates and allowed to adsorb (or adhere, in the case of the undiluted sera) into the agar. Assays were conducted in duplicate and undiluted and 1:5 and 1:10 dilutions of the solutions and sterile saline (negative control) and chlorhexidine (CHX) were used. […] The diameter of each zone was measured in mm. The zones of inhibition of each dilution sample were compared to the zones of control saline without antimicrobial components. If the zones of the solutions were the same size (or smaller) than the inhibition zones from the control saline than there was judged no inhibition of antimicrobial activity by the antimicrobial solutions. Conversely, if the zones of the solutions were larger than the inhibition zones from the control saline than there was judged significant antimicrobial activity by the solutions. […]
# S. mutans [2] = assay: as above; assay type: cell-based, Streptococcus mutans; details: control spot, dilution not given; after 5 days of incubation
# Method: as §1
# F. nucleatum [3] = assay: as above; assay type: cell-based, Fusobacterium nucleatum; details: control spot, dilution not given; after 5 days of incubation
# Method: as §1
# F. nucleatum [4] = assay: zone of inhibition on blood agar, drop technique and line method (Example 2); assay type: cell-based, Fusobacterium nucleatum; details: control, 3 ul of 20%; after 3 days of incubation
# Method: (§2) Experimental Design: Blood agar (for the 3 anaerobic bacteria, 1 facultative bacterium and 1 aerobic yeast; Fisher Scientific) plates were individually swabbed with fresh 24 h broth cultures of C. albicans, P. gingivalis, P. intermedia, F. nucleatum and S. mutans to provide a confluent lawn of microbial growth. […] Assays were conducted in duplicate and undiluted and 1:5 and 1:10 dilutions of the solutions and sterile saline (negative control) were used. The plates were incubated agar-side up at 37° C. in a GasPak anaerobic jar or in 5% CO2 for 72 h. Plates were examined at 72 h for zones of inhibition of growth of the microbes. The diameter of each zone was measured in mm. The zones of inhibition of each dilution sample were compared to the zones of control saline without antimicrobial components. If the zones of the solutions were the same size (or smaller) than the inhibition zones from the control saline than there was judged no inhibition of antimicrobial activity by the antimicrobial solutions. Conversely, if the zones of the solutions were larger than the inhibition zones from the control saline than there was judged significant antimicrobial activity by the solutions. It was anticipated that there will be significant inhibition of microbial growth by at least some of the antimicrobial wheat grass products. […]
# [5] = system: C. rectus, Aggregatibacter actinomycetemcomitans (A.a), C. albicans, P. gingivalis, P. intermedia, F. nucleatum and S. mutans; assay: in vitro antimicrobial activity, summary over the seven microbes (Example 3); assay type: cell-based; details: overall summary of Example 3
# Method: (§3) Experimental Design: Blood agar (for the 3 anaerobic bacteria, 3 facultative bacteria and 1 aerobic yeast; Fisher Scientific) plates were individually swabbed with fresh 24 h broth cultures of C. rectus, Aggregatibacter actinomycetemcomitans (A.a), C. albicans, P. gingivalis, P. intermedia, F. nucleatum and S. mutans to provide a confluent lawn of microbial growth. Five minutes after swabbing the plates (to allow the inoculum to absorb into the agar), the test and control specimens (see below) were aseptically pipetted (5 ul) onto designated places on the plates and allowed to adsorb (or adhere, in the case of the undiluted sera) into the agar. Assays were conducted in duplicate and undiluted and 1:5 and 1:10 dilutions of the solutions and sterile saline (negative control) and chlorhexidine (CHX) were used. The plates were incubated agar-side up at 37° C. in a GasPak anaerobic jar or in 5% CO2 for 72 h. Plates were examined at 72 h for zones of inhibition of growth of the microbes. The diameter of each zone was measured in mm. The zones of inhibition of each dilution sample were compared to the zones of control saline without antimicrobial components. If the zones of the solutions were the same size (or smaller) than the inhibition zones from the control saline than there was judged no inhibition of antimicrobial activity by the antimicrobial solutions. […]
# P. intermedia [6] = assay: zone of inhibition on blood agar, drop technique and line method (Example 2); assay type: cell-based, Prevotella intermedia; details: control, 3 ul of 20%; after 3 days of incubation
# Method: as §3, with “bacteria, 1” for “bacteria, 3”, “facultative bacterium” for “facultative bacteria”, “of” for “of C. rectus, Aggregatibacter actinomycetemcomitans (A.a),”, “specimens ([…]” for “specimens (see below) were aseptically pipetted (5 ul) onto designated places on the plates and allowed to adsorb (or”, “control)” for “control) and chlorhexidine (CHX)”, “solutions. Conversely, if the zones of the solutions were larger than the inhibition zones from the control saline than there was judged significant antimicrobial activity by the solutions.” for “solutions.”
# C. rectus = assay: zone of inhibition on blood agar, drop technique and line method (Example 3); assay type: cell-based, Campylobacter rectus; details: control spot, dilution not given; after 5 days of incubation
# Method: as §1, with “The” for “The diameter of each zone was measured in mm. The”
# P. gingivalis [7] = assay: zone of inhibition on blood agar, drop technique and line method (Example 2); assay type: cell-based, Porphyromonas gingivalis; details: control, 3 ul of 20%; after 3 days of incubation
# Method: as §3, with “bacteria, 1” for “bacteria, 3”, “facultative bacterium” for “facultative bacteria”, “of” for “of C. rectus, Aggregatibacter actinomycetemcomitans (A.a),”, “specimens ([…])” for “specimens (see below) were aseptically pipetted (5 ul)”, “control)” for “control) and chlorhexidine (CHX)”
# P. intermedia [8] = assay: zone of inhibition on blood agar, drop technique and line method (Example 3); assay type: cell-based, Prevotella intermedia; details: control spot, dilution not given; after 5 days of incubation
# Method: as §1
# S. mutans [9] = assay: zone of inhibition on blood agar, drop technique and line method (Example 2); assay type: cell-based, Streptococcus mutans; details: control, 3 ul of 20%; after 3 days of incubation
# Method: as §2
# [10] = system: Aggregatibacter actinomycetemcomitans (A.a); assay: zone of inhibition on blood agar, drop technique and line method (Example 3); assay type: cell-based; details: control spot, dilution not given; after 5 days of incubation
# Method: as §1
# C. albicans = assay: as above; assay type: cell-based, Candida albicans; details: control spot, dilution not given; after 5 days of incubation
# Method: as §1
smiles,measurement,setting,value
"[H]/N=C(\N/C(=N/[H])NCCCCCCNC(=N)NC(=N)Nc1ccc(Cl)cc1)Nc1ccc(Cl)cc1 [Chlorhexidine, chlorhexidine]",circumference of zone of inhibition,P. gingivalis [1],14 mm
same,diameter of zone of inhibition,S. mutans [2],16 mm
same,circumference of zone of inhibition,F. nucleatum [3],15 mm
same,zone of inhibition,F. nucleatum [4],40 mm
same,"inhibition of growth of the seven species, in words",[5],inhibited the microbial growth of each species
same,zone of inhibition,P. intermedia [6],24 mm
same,circumference of zone of inhibition,C. rectus,16 mm
same,zone of inhibition,P. gingivalis [7],25 mm
same,diameter of zone of inhibition,P. intermedia [8],20 mm
same,zone of inhibition,S. mutans [9],19 mm
same,circumference of zone of inhibition,[10],11 mm
same,circumference of zone of inhibition,C. albicans,20 mm
